Where two headings read alike, the source gives them in different places. A value given as a limit tells only on which side of the number the result lay.

One experiment concerns the target TYK2 (Homo sapiens (Human), UniProt P29597). The experiment in a line: TYK2 Radioactive Kinase Assay. It is filed as biochemical. Particulars: read-out: TYK2 (% Inhibition at 10 μM).
For the next experiment, the target named is JAK2 (Homo sapiens (Human), UniProt O60674). Nature of the experiment: JAK2 Radioactive Kinase Assay. It is filed as biochemical. Particulars: for inhibition at 10 µM: read-out: JAK2 (% Inhibition at 10 μM). The method, then: Peptide substrate, [[…]], (20 μM) was prepared in reaction buffer (20 mM Hepes pH 7.5, 10 mM MgCl2, 1 mM EGTA, 0.02% Brij35, 0.02 mg/mL BSA, 0.1 mM […], 2 mM DTT, 1% DMSO. TYK2 (Invitrogen) kinase was added, followed by compounds in DMSO. 33PATP was added to initiate the reaction in ATP at […]. Kinase reaction was incubated for 120 min at room temp and reactions were spotted onto P^81 ion exchange paper (Whatman #3698-915), and then washed extensively in 0.75% phosphoric acid, prior to reading the radioactivity counts. For JAK2 (Invitrogen) kinase assay the peptide substrate poly[Glu:Tyr] (4:1), 0.2 mg/mL was used, in the reaction carried out the same as for TYK2.

Experiment [1] deals with IL-12 induced STAT4 phosphorlyation mediated by TYK2/JAK2. Nature of the experiment: IL-12 Induced pSTAT4 in Human PBMC. Particulars: 1.7 ng/mL IL-12 for 30 minutes. It is filed as cell-based. A digest of the protocol:
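Thawed human PBMC pre-incubated with compound 1 hr at 37° C (0.1% DMSO final), then stimulated 30 minutes with IL-12 at 1.7 ng/mL final. pSTAT4 and total STAT4 measured in cell lysates with MSD reagents.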

The target in experiment [2] is human TYK2 (JH2domain-pseudokinase) (Homo sapiens (Human), UniProt P29597). Nature of the experiment: TYK2 JH2 Domain Binding Assay (KINOMEscan). Particulars: 11-point 3-fold dilution, top concentration 30,000 nM, duplicate; read-out: hTYK2_JH2_Binding (Kd; nM). The method, boiled down: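 KINOMEscan competition binding: HEK293-expressed NFkB-fused TYK2 JH2 (G556–D888), DNA-tagged, against immobilized ligand beads, 1 h shaking at room temperature, 0.9% DMSO. Bound kinase quantified by qPCR.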

Where [3] appears, read: compound at 10 μM, peptide substrate […].
[4] abbreviates: compound at 10 μM, substrate poly[Glu:Tyr] (4:1).

Sequence of human TYK2 (JH2domain-pseudokinase) (P29597 556-888): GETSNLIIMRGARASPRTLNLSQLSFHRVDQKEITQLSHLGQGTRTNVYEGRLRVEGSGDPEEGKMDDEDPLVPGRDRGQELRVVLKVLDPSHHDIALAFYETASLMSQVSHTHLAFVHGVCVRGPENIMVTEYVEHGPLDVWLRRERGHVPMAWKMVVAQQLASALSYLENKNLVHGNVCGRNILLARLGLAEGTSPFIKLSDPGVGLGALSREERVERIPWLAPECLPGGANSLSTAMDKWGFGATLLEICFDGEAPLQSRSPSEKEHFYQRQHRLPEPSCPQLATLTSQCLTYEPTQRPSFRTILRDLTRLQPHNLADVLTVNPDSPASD
Sequence of TYK2 (P29597 whole entry): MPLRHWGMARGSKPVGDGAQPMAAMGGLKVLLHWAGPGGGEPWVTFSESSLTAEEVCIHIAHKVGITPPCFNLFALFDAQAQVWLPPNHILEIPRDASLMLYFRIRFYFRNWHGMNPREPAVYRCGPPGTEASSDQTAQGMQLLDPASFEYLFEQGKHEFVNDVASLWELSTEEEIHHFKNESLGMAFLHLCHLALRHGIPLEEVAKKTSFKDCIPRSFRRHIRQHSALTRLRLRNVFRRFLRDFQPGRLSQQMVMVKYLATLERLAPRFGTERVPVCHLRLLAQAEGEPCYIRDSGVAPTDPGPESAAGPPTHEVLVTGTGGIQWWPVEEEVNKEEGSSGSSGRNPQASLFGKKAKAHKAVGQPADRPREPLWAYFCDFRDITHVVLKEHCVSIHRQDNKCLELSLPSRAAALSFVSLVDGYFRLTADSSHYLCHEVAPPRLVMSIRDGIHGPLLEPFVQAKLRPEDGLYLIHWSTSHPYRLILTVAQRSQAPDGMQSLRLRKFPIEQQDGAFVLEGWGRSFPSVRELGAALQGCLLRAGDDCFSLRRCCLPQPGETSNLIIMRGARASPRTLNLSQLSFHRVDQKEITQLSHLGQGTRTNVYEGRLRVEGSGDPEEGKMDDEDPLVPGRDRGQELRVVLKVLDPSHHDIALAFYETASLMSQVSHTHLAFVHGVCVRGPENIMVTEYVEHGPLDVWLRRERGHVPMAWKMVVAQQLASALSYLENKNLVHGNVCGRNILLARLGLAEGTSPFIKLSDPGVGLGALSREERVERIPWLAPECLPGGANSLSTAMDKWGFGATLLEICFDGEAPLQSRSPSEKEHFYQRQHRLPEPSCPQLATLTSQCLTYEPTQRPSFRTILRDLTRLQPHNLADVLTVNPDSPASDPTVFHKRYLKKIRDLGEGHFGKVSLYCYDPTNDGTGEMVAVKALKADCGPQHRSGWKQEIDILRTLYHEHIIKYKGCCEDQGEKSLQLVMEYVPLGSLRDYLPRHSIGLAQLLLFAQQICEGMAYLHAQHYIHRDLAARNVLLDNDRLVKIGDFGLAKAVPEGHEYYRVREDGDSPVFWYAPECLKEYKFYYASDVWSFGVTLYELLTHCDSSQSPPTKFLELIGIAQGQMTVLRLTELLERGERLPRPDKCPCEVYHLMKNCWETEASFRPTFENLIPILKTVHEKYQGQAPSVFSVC
Sequence of JAK2 (O60674 whole entry): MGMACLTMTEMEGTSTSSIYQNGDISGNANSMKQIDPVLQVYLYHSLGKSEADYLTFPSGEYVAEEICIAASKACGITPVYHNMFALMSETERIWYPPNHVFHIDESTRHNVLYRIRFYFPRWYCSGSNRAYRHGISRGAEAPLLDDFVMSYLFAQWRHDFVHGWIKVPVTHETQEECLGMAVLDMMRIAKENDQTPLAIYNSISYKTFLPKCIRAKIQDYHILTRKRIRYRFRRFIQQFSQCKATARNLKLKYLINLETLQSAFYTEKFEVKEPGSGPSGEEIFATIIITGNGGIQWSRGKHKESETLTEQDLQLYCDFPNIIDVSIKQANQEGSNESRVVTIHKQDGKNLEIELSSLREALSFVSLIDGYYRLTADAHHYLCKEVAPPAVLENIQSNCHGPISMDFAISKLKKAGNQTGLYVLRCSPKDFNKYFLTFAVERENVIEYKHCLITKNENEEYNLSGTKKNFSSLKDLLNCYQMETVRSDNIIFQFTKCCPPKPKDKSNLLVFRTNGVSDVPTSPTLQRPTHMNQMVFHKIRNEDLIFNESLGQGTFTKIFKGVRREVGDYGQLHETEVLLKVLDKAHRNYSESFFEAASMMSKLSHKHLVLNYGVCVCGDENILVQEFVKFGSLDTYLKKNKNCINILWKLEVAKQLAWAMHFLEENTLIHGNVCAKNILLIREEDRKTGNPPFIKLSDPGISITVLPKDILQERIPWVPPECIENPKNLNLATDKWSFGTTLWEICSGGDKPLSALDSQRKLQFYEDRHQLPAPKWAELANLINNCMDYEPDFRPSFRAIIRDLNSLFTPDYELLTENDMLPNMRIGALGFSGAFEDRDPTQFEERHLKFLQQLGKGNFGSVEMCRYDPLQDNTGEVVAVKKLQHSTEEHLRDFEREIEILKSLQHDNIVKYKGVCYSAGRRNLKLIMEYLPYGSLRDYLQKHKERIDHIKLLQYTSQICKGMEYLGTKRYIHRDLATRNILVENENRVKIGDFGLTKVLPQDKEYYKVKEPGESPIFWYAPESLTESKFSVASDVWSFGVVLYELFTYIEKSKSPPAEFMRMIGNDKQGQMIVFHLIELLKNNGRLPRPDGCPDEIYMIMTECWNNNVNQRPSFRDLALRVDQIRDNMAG

As for `CNc1cc(Nc2cccn([C@H]3[C@@H]4COC[C@@H]43)c2=O)nc2c(C(=O)NC3C[C@H]3OC)cnn12` (mixture of isomers) [Compound I-24, 5-((1-((1R,5S,6r)-3-Oxabicyclo[3.1.0]hexan-6-yl)-2-oxo-1,2-dihydropyridin-3-yl)amino)-N-(2-methoxycyclopropyl)-7-(methylamino)pyrazolo[1,5-a]pyrimidine-3-carboxamide], the inhibition at 10 µM on TYK2 (setting [3]) and at JAK2 (setting [4]) was less than 50% throughout. Moreover, the IC50 in experiment [1] (0.5 h) was less than 0.1 µM.
Regarding `CNc1cc(Nc2cccn([C@H]3C[C@H](F)C3)c2=O)nc2c(C(=O)NC3CC[C@@H](OC)C3)cnn12` (mixture of isomers) [Compound I-66, 5-((1-((1r,3R)-3-Fluorocyclobutyl)-2-oxo-1,2-dihydropyridin-3-yl)amino)-N-(3-methoxycyclopentyl)-7-(methylamino)pyrazolo[1,5-a]pyrimidine-3-carboxamide], the inhibition at 10 µM at TYK2 (setting [3]) and at JAK2 (setting [4]) was less than 50% in each case.
`CNc1cc(Nc2cccn(C3CCC[C@@](C)(O)C3)c2=O)nc2c(C(=O)N[C@@H]3C[C@@H]3F)cnn12` (stereo partly drawn) [Compound I-6, N-((1R,2S)-2-Fluorocyclopropyl)-5-((1-(3-hydroxy-3-methylcyclohexyl)-2-oxo-1,2-dihydropyridin-3-yl)amino)-7-(methylamino)pyrazol[1,5-a]pyrimidine-3-carboxamide]: the inhibition at 10 µM on TYK2 (setting [3]) and on JAK2 (setting [4]) was less than 50% in each case.
Turning to `CNc1cc(Nc2cccn([C@H]3C[C@H](F)C3)c2=O)nc2c(C(=O)N[C@@H]3C[C@@H]3F)cnn12` [Compound I-7, 5-((1-((1r,3R)-3-Fluorocyclobutyl)-2-oxo-1,2-dihydropyridin-3-yl)amino)-N-((1R,2S)-2-fluorocyclopropyl)-7-(methylamino)pyrazolo[1,5-a]pyrimidine-3-carboxamide], the inhibition at 10 µM on TYK2 (setting [3]) and at JAK2 (setting [4]) was less than 50% throughout. The compound further yielded an IC50 in experiment [1] (0.5 h) of less than 0.1 µM.
On to `CNc1cc(-c2cn(C3CCOCC3)c3ncc(F)cc23)nc2c(C(=O)N[C@H]3CC[C@@H]3O)cnn12` [Compound I-18, 5-(5-Fluoro-1-(tetrahydro-2H-pyran-4-yl)-1H-pyrrolo[2,3-b]pyridin-3-yl)-N-((1S,2S)-2-hydroxycyclobutyl)-7-(methylamino)pyrazolo[1,5-a]pyrimidine-3-carboxamide], for which the inhibition at 10 µM at TYK2 (setting [3]) and at JAK2 (setting [4]) was less than 50% in each case. In experiment [2], the Kd is less than 0.2 nM.
For the compound `CNc1cc(-c2cn(C3CCOCC3)c3ncc(F)cc23)nc2c(C(=O)N[C@@H]3CC[C@H]3O)cnn12` [Compound I-19, 5-(5-Fluoro-1-(tetrahydro-2H-pyran-4-yl)-1H-pyrrolo[2,3-b]pyridin-3-yl)-N-((1R,2R)-2-hydroxycyclobutyl)-7-(methylamino)pyrazolo[1,5-a]pyrimidine-3-carboxamide], the inhibition at 10 µM at TYK2 (setting [3]) and at JAK2 (setting [4]) was less than 50% throughout. For the same compound, the Kd in experiment [2] is 0.2 to 1 nM.
Regarding `CNc1cc(Nc2cccn(C3CC(F)(F)C3)c2=O)nc2c(C(=O)NC3C[C@H]3OC)cnn12` (stereo partly drawn) [Compound I-33, 5-((1-(3,3-Difluorocyclobutyl)-2-oxo-1,2-dihydropyridin-3-yl)amino)-N-((trans-1,2)-2-methoxycyclopropyl)-7-(methylamino)pyrazolo[1,5-a]pyrimidine-3-carboxamide], the inhibition at 10 µM on TYK2 (setting [3]) and on JAK2 (setting [4]) was less than 50% throughout. The IC50 in experiment [1] (0.5 h) was less than 0.1 µM.
For `CNc1cc(Nc2cccn(C3CC(F)(F)C3)c2=O)nc2c(C(=O)N[C@@H]3CC[C@H](O)C3)cnn12` [Compound I-36, 5-((1-(3,3-Difluorocyclobutyl)-2-oxo-1,2-dihydropyridin-3-yl)amino)-N-((1R,3S)-3-hydroxycyclopentyl)-7-(methylamino)pyrazolo[1,5-a]pyrimidine-3-carboxamide], the inhibition at 10 µM at TYK2 (setting [3]) and on JAK2 (setting [4]) was less than 50% in each case. Besides, in experiment [2], the Kd fell in the range of 0.2 to 1 nM.
As to `CNc1cc(Nc2cccn([C@H]3C[C@H](F)C3)c2=O)nc2c(C(=O)NC3CC[C@@H]3OC)cnn12` (stereo partly drawn) [Compound I-46, 5-((1-((1r,3S)-3-Fluorocyclobutyl)-2-oxo-1,2-dihydropyridin-3-yl)amino)-N-((trans-1,2)-2-methoxycyclobutyl)-7-(methylamino)pyrazolo[1,5-a]pyrimidine-3-carboxamide], the inhibition at 10 µM on TYK2 and at JAK2 was less than 50% throughout. The compound also yielded an IC50 in experiment [1] (0.5 h) of less than 0.1 µM.
Turning to `CNc1cc(Nc2cccn(C3CC(F)(F)C3)c2=O)nc2c(C(=O)N[C@@H]3CCC[C@@H](O)C3)cnn12` [Compound I-62, 5-((1-(3,3-Difluorocyclobutyl)-2-oxo-1,2-dihydropyridin-3-yl)amino)-N-((1R,3R)-3-hydroxycyclohexyl)-7-(methylamino)pyrazolo[1,5-a]pyrimidine-3-carboxamide], the inhibition at 10 µM on TYK2 (setting [3]) and on JAK2 (setting [4]) was less than 50% in each case.
For the compound `CNc1cc(Nc2cccn(C3CC(F)(F)C3)c2=O)nc2c(C(=O)N[C@H]3CCC[C@H](O)C3)cnn12` [Compound I-63, 5-((1-(3,3-Difluorocyclobutyl)-2-oxo-1,2-dihydropyridin-3-yl)amino)-N-((1S,3S)-3-hydroxycyclohexyl)-7-(methylamino)pyrazolo[1,5-a]pyrimidine-3-carboxamide], the inhibition at 10 µM on TYK2 (setting [3]) and on JAK2 (setting [4]) was less than 50% throughout.
As for `CNc1cc(Nc2cccn(-c3ccccn3)c2=O)nc2c(C(=O)N[C@@H]3CC[C@@H](OC)C3)cnn12` [Compound I-67, N-((1R,3R)-3-Methoxycyclopentyl)-7-(methylamino)-5-((2-oxo-2H-[1,2′-bipyridin]-3-yl)amino)pyrazolo[1,5-a]pyrimidine-3-carboxamide], the inhibition at 10 µM at TYK2 (setting [3]) and on JAK2 (setting [4]) was less than 50% in each case.
Consider `CNc1cc(Nc2cccn([C@H]3CC[C@H](OC)CC3)c2=O)nc2c(C(=O)N[C@@H]3CC[C@@H](OC)C3)cnn12` [Compound I-69, 5-((1-((1r,4R)-4-Methoxycyclohexyl)-2-oxo-1,2-dihydropyridin-3-yl)amino)-N-((1R,3R)-3-methoxycyclopentyl)-7-(methylamino)pyrazolo[1,5-a]pyrimidine-3-carboxamide], for which the “JAK2 (% Inhibition at 10 μM)” value at JAK2 (setting [4]) is reported as “A (percent inhibition at 10 μM lower than 50)”.
For the compound `CNc1cc(Nc2cccn([C@H]3CC[C@H](OC)CC3)c2=O)nc2c(C(=O)N[C@H]3CC[C@H](OC)C3)cnn12` [Compound I-70, 5-((1-((1 r,4S)-4-Methoxycyclohexyl)-2-oxo-1,2-dihydropyridin-3-yl)amino)-N-((1S,3S)-3-methoxycyclopentyl)-7-(methylamino)pyrazolo[1,5-a]pyrimidine-3-carboxamide], the “JAK2 (% Inhibition at 10 μM)” value at JAK2 (setting [4]) is recorded as “A (percent inhibition at 10 μM lower than 50)”.
Regarding `CNc1cc(-c2cn([C@H]3[C@@H]4COC[C@@H]43)c3ncccc23)nc2c(C(=O)N[C@@H]3CC[C@H]3O)cnn12` [Compound I-960], the Kd in experiment [2] was less than 0.2 nM. This compound yielded an IC50 in experiment [1] of 0.1 to 0.5 µM.
Take `CNc1cc(-c2cnc3n(CC(=O)N4CCOCC4)cccc2-3)nc2c(C(=O)NC3CC[C@@H]3OC)cnn12` (some centres unmarked) [Compound I-962]: the Kd in experiment [2] is less than 0.2 nM. Further, the IC50 in experiment [1] was 0.5 to 1 µM.
The like results for `CNc1cc(-c2cnc3n(CC(=O)N4CC5(COC5)C4)cccc2-3)nc2c(C(=O)N[C@H]3CC[C@@H]3OC)cnn12` [Compound I-1012] were, in that order, less than 0.2 nM and more than 1 µM.
The corresponding values for `CNc1cc(-c2cnc3n(C4CCOCC4)cccc2-3)nc2c(C(=O)N[C@H]3CC[C@@H]3OC)cnn12` [Compound I-1014] are less than 0.2 nM and less than 0.1 µM.
The like results for `CNc1cc(-c2cnc3n(C4CCOCC4)cccc2-3)nc2c(C(=O)N[C@@H]3CC[C@H]3OC)cnn12` [Compound I-1015] were, in that order, less than 0.2 nM and 0.5 to 1 µM.
As for `CNc1cc(-c2cnc3n(C4CCN(CCOC)CC4)cccc2-3)nc2c(C(=O)N[C@H]3CC[C@@H]3OC)cnn12` [Compound I-1020, N-((1S,2S)-2-methoxycyclobutyl)-5-(7-(1-(2-methoxyethyl)piperidin-4-yl)-7H-pyrrolo[2,3-b]pyridin-3-yl)-7-(methylamino)pyrazolo[1,5-a]pyrimidine-3-carboxamide], the Kd in experiment [2] was less than 0.2 nM. The IC50 in experiment [1] (0.5 h) was less than 0.1 µM.
Regarding “N-((cis-1,2)-2-Hydroxycyclobutyl)-5-(1-((1s,3R)-3-hydroxycyclobutyl)-1H-pyrrolo[2,3-b]pyridin-3-yl)-7-(methylamino)pyrazolo[1,5-a]pyrimidine-3-carboxamide [Compound I-111]”, the Kd in experiment [2] is less than 0.2 nM. This compound also returned an IC50 in experiment [1] of 0.1 to 0.5 µM.

The values above are taken from patent publication US11414431B2, “Substituted pyrazolo[1,5-a]pyrimidines as TYK2 inhibitors” (Nimbus Lakshmi, Inc., priority 2018, dated 2022).
